Values joined by “and” are separate entries in the source; they are usually repeats but may differ in a detail not shown here. Identical values can stand only once. “Also recorded” adds a separate entry of the source. Like-named read-outs stand apart in the source and are kept apart here.
Target: T1, GIRK1/2 (UniProt P48542+P48549)
T1 sequence (P48549 1-501): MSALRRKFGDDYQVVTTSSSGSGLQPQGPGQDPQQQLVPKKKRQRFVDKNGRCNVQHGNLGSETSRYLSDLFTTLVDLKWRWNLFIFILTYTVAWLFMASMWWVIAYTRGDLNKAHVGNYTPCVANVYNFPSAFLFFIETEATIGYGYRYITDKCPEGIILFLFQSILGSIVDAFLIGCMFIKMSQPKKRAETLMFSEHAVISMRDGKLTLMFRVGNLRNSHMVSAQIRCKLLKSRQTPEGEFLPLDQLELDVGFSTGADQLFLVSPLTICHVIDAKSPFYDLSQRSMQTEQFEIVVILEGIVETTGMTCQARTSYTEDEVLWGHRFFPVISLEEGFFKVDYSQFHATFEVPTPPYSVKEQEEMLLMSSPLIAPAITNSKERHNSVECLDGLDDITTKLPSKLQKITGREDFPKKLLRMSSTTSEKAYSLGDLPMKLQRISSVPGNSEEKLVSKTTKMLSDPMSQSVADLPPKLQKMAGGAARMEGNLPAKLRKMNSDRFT
T1 sequence (P48542 1-425): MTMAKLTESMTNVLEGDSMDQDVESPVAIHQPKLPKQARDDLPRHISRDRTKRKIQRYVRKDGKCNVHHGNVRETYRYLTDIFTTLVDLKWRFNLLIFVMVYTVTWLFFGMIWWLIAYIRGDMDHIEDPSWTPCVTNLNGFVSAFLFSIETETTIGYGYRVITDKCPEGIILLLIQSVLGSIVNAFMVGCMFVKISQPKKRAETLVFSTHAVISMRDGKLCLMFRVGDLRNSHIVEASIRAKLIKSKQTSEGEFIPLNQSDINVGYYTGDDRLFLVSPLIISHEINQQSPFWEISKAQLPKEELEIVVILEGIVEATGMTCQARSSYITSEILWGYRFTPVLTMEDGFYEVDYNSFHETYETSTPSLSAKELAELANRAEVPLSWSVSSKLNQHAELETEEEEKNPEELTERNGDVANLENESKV
Test: two-electrode voltage clamp (TEVC) in Xenopus oocytes expressing GIRK1/2 wild-type
Type: cell-based, human GIRK1, mouse GIRK2
Design: expressed in transfected cells; host or cells: Xenopus laevis oocytes (cRNA injection)
Details: for selectivity for GIRK1/2 over GIRK1/4 (in words) / EC50: TEVC; for selectivity for GIRK1/2 over GIRK1/4 (in words): GIRK1/2 versus GIRK1/4; for EC50: Xenopus oocytes, GIRK1/2 wild-type; for EMAX at GIRK1/2: current normalized to basal current
Description: Molecular biology: For Xenopus oocyte expression, human GIRK1 and human GIRK4 cDNAs were subcloned into pGEMHE. For mammalian expression, human GIRK1 and human GIRK4 cDNAs were subcloned into pcDNA3 and pcDNA3.1/V5-His B, respectively (Invitrogen). Mouse GIRK2 cDNA was subcloned in the dual-function vector, pXoom. Point mutations were introduced using a standard Pfu-based mutagenesis technique according to the QuikChange protocol (Agilent). Mutations were verified by sequencing.
Xenopus laevis oocyte expression: Plasmid DNAs of GIRK channel subunits were linearized prior to in vitro transcription. Capped RNAs were transcribed using mMESSAGE mMACHINE T7 Transcription Kit (Thermo Fisher Scientific). Xenopus oocytes were surgically extracted, dissociated and defolliculated by collagenase treatment, and microinjected with 50 nl of a water solution containing 1 ng of each GIRK subunit RNA. For TEVC experiments, oocytes were kept 2 days at 17° C. before recording, while for NPo experiments oocytes were incubated for up to 4 days at 17° C.
Xenopus laevis oocyte expression: All cDNA constructs in the pGEMHE vector were linearized using the NheI restriction enzyme, whereas those in the pXoom vector were linearized using the XhoI restriction enzyme. Linearized cDNAs were in vitro-transcribed using the mMessage mMachine® kit (Ambion) kit. Complementary RNA (cRNA) concentrations were quantified by optical density. Xenopus oocytes were surgically extracted, dissociated, and defolliculated by collagenase treatment and microinjected with 50 nl of the desired cRNAs diluted in RNAase-free water. The use of Xenopus laevis frogs for this study was approved by the Institutional Animal Care and Use Committee (IACUC) at Northeastern University. All constructs used in this study were injected to achieve between 1-2 ng per oocyte depending on the channel. Oocytes were incubated for 2 days at 18° C.
Electrophysiology of oocytes: Whole-oocyte currents were measured by conventional two-electrode voltage clamp (TEVC) with a GeneClamp 500 amplifier (Axon Instruments). […] Barium-sensitive currents were normalized to average basal current in the vehicle solutions. The HK solution contained the following: 96 mM KCl, 1 mM NaCl, 1 mM MgCl2, 5 mM KOH/HEPES, pH 7.4. The barium solution consisted of HK+10 mM BaCl2. Five to ten oocytes from the same batch (same frog) were recorded for each group, and the experiments were repeated in at least four batches. Data acquisition and analysis were carried out using pClamp9 (Molecular Devices) and OriginPro (Microcal) software.

[1] = ML297 considered 100%, read-out: EMAX at GIRK1/2, % relative to ML297

Structure (SMILES)	GAT1508-induced potassium current, GIRK1/2 (in words) (10 μM, 10 mM K+, holding potential −100 mV)	GAT1508-induced thallium current, GIRK1/2 (in words) (10 μM, 10 mM thallium, holding potential −100 mV)	Emax (GAT1508 at wild-type GIRK1/2 considered 100%, read-out: EMAX, % of the control GIRK1/2) [%]	Emax [1] [%]	selectivity for GIRK1/2 over GIRK1/4 (in words)	EC50 [nM]	EMAX at GIRK1/2	potency/efficacy compared to GAT1508 (in words) (concentration-response, FIGS. 34A-34I)	compound-induced current normalized to the basal current, GIRK1+GIRK2 (10 μM, High Potassium (HK) solution, FIG. 31)	EMAX at GIRK1/2, % relative to ML297 (ML297 considered 100%) [%]
Cc1cc(NC(=O)Nc2ccc(Br)s2)n(-c2ccccc2)n1 [GAT1508, 1-(5-bromothiophen-2-yl)-3-(3-methyl-1-phenyl-1H-pyrazol-5-yl)urea]	significantly increased currents	induced current increases	100	76	most selective GIRK1/2 activators relative to GIRK1/4; also recorded: could induce the current increase only in the brain channel	370 ± 110	2.42±0.07 and 2.36±0.23	–	–	–
Cc1cc(NC(=O)Nc2ccc(C)s2)n(-c2ccccc2)n1 [GAT1521, 1-(3-methyl-1-phenyl-1H-pyrazol-5-yl)-3-(5-methylthiophen-2-yl)urea]	–	–	–	73	most selective GIRK1/2 activators relative to GIRK1/4; also recorded: retained the specificity for brain over cardiac currents; also recorded: could induce the current increase only in the brain channel	1220 ± 80	2.36±0.06	lower potency than GAT1508	–	–
Cc1cc(NC(=O)Nc2ccc(F)c(F)c2)n(-c2ccccc2)n1 [ML297, reference compound]	–	–	–	–	stimulated both brain and cardiac heteromeric channels	340 ± 120	2.87±0.11	–	~2.5	100

— patent publication US12351574B2, “Selective ligands for modulation of GIRK channels” (Northeastern University, priority 2018, dated 2025)
